# Measurements taken from patent publication US6855546B1, “Controlling availability or activity of proteins by use of protease inhibitors or receptor fragments” (Universiteit Utrecht, priority 1999, dated 2005).
# Where a SMILES comes first, the peptide text is derived from it. The star is where a group is joined. Cbz = O=C(OCc1ccccc1)*
# Legend:
# Format in all cases: cell-based, Chinese hamster
# [1] = test system: CHO-ts20 cells expressing the rabbit GHR; test: Cy3-GH endocytosis by confocal microscopy, wild-type GHR; conditions: 20 mM inhibitor 3 hours at 30° C., then Cy3-GH 30 minutes
# Protocol: FIG. 1. Effect of proteasome inhibitors on Cy3-GH and Cy3-transferrin endocytosis. CHO-ts20 cells, expressing either wild-type (A, D, G, C, F, I) or truncated GHR (B, E, H), were incubated with vehicle (A-C) or with 20 mM MG132 (D-F) or 20 mM lactacystin (G-I) for 3 hours at 30° C.; then Cy3-GH (A, B, D, E, G, H), or Cy3-transferrin (C, F, I) were added for 30 minutes, and the cells were washed, fixed and the fluorescence was visualized by confocal microscopy. If excess labeled ligand was added, no uptake was observed. If the cells in D, G were treated at pH 2.5 before fixation, virtually no label was visible (not shown).
# Down-regulation of signal-transducing membrane receptors is part of highly programmed cascades of events leading both to extinction of the signaling pathway(s) and to rapid degradation of the primary messenger: the receptor and its ligand (3, 4, 5, 6, 7). In the absence of ligand, the half-life of GHR is approximately 1 to 2 hours depending on the cell system used. The assumption is that this is mainly due to a proteolytic cleavage in the extracellular domain of the GHR resulting in soluble GH-binding protein (8). If ligand is present, a completely different scenario follows: two GHR polypeptides dimerize, they are phosphorylated by the tyrosine kinase Jak2 and ubiquitinated, and the complex is endocytosed. […]
# [2] = test system: CHO-ts20 cells expressing GHR; test: 125I-GH uptake (internalization) kinetic experiment; conditions: inhibitor 20 mM added 3 hours before; 125I-GH 8 nM bound on ice, incubated at 30° C.
# Protocol: FIG. 2. […] CHO-ts20 cells were incubated with or without inhibitors for 3 hours at 30° C., and put on ice for 60 minutes with ^125I-GH. The cells were then incubated at 30° C. as indicated. Background label was determined in untransfected cells and subtracted. Plotted are the amounts of ^125I-GH internalized as a percentage of the cell-associated radioactivity at the start of incubation. □, control (1% ethanol); ●, MG132; ◯, lactocystin; X, lactacystin β-lactone.
# To confirm and quantify the effect of the proteasome inhibitors, we measured the uptake of ^125I-GH in a kinetic experiment. Cells were pretreated with the inhibitors, ^125I-GH was bound on ice, and cells were incubated for various periods of time (FIG. 2). At the end of the incubation period, uptake was determined by washing the cells at low pH to remove the label from the cell surface. Again, GH uptake was inhibited by the proteasome inhibitors: MG132 and lactacystin b-lactone reduced the uptake to approximately 25% of the control level. […] TCA-soluble radioactivity in the culture medium, derived from lysosomal degradation of ^125I-GH, increased after 15 minutes if no inhibitor was added; virtually no TCA-soluble radioactivity appeared if the inhibitors were present (not shown).
# GH binding and internalization. ^125I-hGH was prepared using chloramine T (28). For internalization studies, cells were grown in 35 mm dishes, washed with aMEM, supplemented with 20 mM HEPES, incubated for 1 hour at 30° C. in aMEM/HEPES, ^125I-GH (8 nM) was bound on ice for 60 minutes in the absence or presence of excess unlabeled GH, and the cells were washed free of unbound GH and incubated for 0 to 60 minutes. If indicated, lactacystin or its b-lactone (20 mM), MG132 (20 mM), and ZL3vinylsulfone (20 mM), dissolved in either ethanol or dimethylsulfoxide, or only vehicle, were added 3 hours before the start of the experiment. Membrane-associated GH was removed by acid wash (0.15 M NaCl, 0.05 M glycine, pH 2.5) (29) and internalized GH was determined by measuring the radioactivity after solubilization of the acid-treated cells by 1 M NaOH.
# [3] = test system: mature GHR in CHO-ts20 cells; test: 35S-methionine pulse-chase of GHR in the presence of GH; conditions: 16 nM GH
# Protocol: FIG. 3. Effect of MG132 on GHR degradation in the presence of ligand. A. Cells were pulse labeled with ^35S-methionine and then chased in unlabeled methionine in the presence of 16 nM GH with or without MG132 for the times indicated. GHR was immunoprecipitated using an anti-cytosolic tail antibody. The radioactivity in the mature (upper) band (inset) was quantitated and plotted. □, control (1% ethanol); ●, MG132. B. Cells were biotinylated and incubated in the presence of GH with MG132 or with vehicle only at 30° C. for the time periods indicated. After streptavidin-bead purification aliquots of the cell lysates were analyzed by SDS-PAGF; western blots were incubated with a monoclonal antibody specific for the extracellular GHR domain and detected with enhanced chemifluorescence. […]
# If proteasome inhibitors affect GHR-uptake, it is expected that the inhibitors prolong the lifetime of GHRs at the cell surface. To address this, we measured the effect of MG132 in a pulse-chase experiment. […] To assess the effect of MG132 more directly, we measured degradation of cell-surface biotinylated GHR after incubation in the presence of ligand (FIG. 3B). […]
# Metabolic labeling. […] The radioactivity was determined using a Molecular Dynamics phosphoimager (STORM860 equipped with ImageQuant software, Molecular Dynamics, Sunnyvale, Calif.). […]
# [4] = test system: cell-surface GHR in CHO-ts20 cells; test: Degradation of cell-surface biotinylated GHR
# Protocol: FIG. 3. Effect of MG132 on GHR degradation in the presence of ligand. A. Cells were pulse labeled with ^35S-methionine and then chased in unlabeled methionine in the presence of 16 nM GH with or without MG132 for the times indicated. GHR was immunoprecipitated using an anti-cytosolic tail antibody. The radioactivity in the mature (upper) band (inset) was quantitated and plotted. □, control (1% ethanol); ●, MG132. B. Cells were biotinylated and incubated in the presence of GH with MG132 or with vehicle only at 30° C. for the time periods indicated. After streptavidin-bead purification aliquots of the cell lysates were analyzed by SDS-PAGF; western blots were incubated with a monoclonal antibody specific for the extracellular GHR domain and detected with enhanced chemifluorescence. The sharp band below the mature GHR (130 kDa) originated from a slight background staining of precursor GHR (110 kDa), due to incomplete removal of biotinylation reagent at cell lysis.
# If proteasome inhibitors affect GHR-uptake, it is expected that the inhibitors prolong the lifetime of GHRs at the cell surface. To address this, we measured the effect of MG132 in a pulse-chase experiment. […] To assess the effect of MG132 more directly, we measured degradation of cell-surface biotinylated GHR after incubation in the presence of ligand (FIG. 3B). […] However, clearance from the cell surface was reduced >50% in the presence of MG132. […] The lifetime of this species was extended in the presence of MG132. Attempts to accumulate this species or other degradation products failed until now.
# Cell surface biotinylation. CHO-ts20 cells, grown in 35 mm dishes, were incubated for 60 minutes at 30° C. in aMEN/HEPES, biotinylated on ice for 30 minutes using sulfo-NHS-SS-biotin (Pierce, Rockford, Ill.), and washed free of biotinylating reagents. For GH binding, the cells were incubated for 1 hour on ice in the presence of 16 nM GH with either 20 mM MG132 or 1% ethanol. The incubation was continued at 30° C. for various time periods in the presence of GH with MG132 or ethanol only. […]
# [5] = test system: GHR in CHO-ts20 cells (temperature-sensitive E1); test: GH-induced GHR degradation, quantitative western blot, CHO-ts20; conditions: 3 hours
# Protocol: (§1) FIG. 4. GH-induced receptor degradation depends on an intact ubiquitin conjugation system. CHO-ts20 and CHO-E36 cells were incubated at the permissive or non-permissive temperature for 3 hours in the presence or absence of GH. Cells were lysed and aliquots were analyzed by western blotting and enhanced chemifluorescence. M, mature GHR, P, precursor GHR.
# (§2) To investigate whether the ubiquitin system selects the GHR for truncation by the proteasome, we expressed the receptor in CHO-ts20 cells harboring a temperature-sensitive ubiquitin-activating enzyme, E1. The cells were incubated for 60 minutes at 42° C. (sufficient to stop generation of newly ubiquitinated proteins), followed by 3 hours at 40° C. in the presence or absence of GH, and the amounts of GHR were determined by quantitative western blot analysis (FIG. 4). At the permissive temperature, incubation in the presence of GH decreased the steady-state amounts of GHR. If the cells were kept at 40° C. in the presence of GH, the amount of GHR increased to 170%. To ascertain that this increase is solely due to a defective ubiquitin conjugation system, we used the CHO-E36 cells with an intact ubiquitin conjugation system at 40° C. As expected, in these cells the steady state of mature GHR decreased to approximately 50% of that without GH, both at 30 and 40° C. […]
# GHR in CHO-E36 cells = test: GH-induced GHR degradation, quantitative western blot, CHO-E36; conditions: CHO-E36, both at 30 and 40° C.
# Protocol: as §1, §2
compound,measurement,setting,value
CC(C)C[C@@H](C=O)NC(=O)[C@H](CC(C)C)NC(=O)[C@H](CC(C)C)NC(=O)OCc1ccccc1 [MG132] (Cbz-Leu-Leu-Leu-aldehyde),Cy3-GH uptake (intracellular fluorescent label),[1],hardly any label was present intracellularly
same,125I-GH uptake relative to control,[2],approximately 25 % of the control level
same,degradation rate of mature GHR,[3],affects the degradation rate of mature GHR
same,membrane transport from ER to the Golgi complex (maturation kinetics 110 kDa to 130 kDa),[3],does not affect membrane transport from ER to the Golgi complex
same,lifetime of biotinylated 85-kDa intermediate degradation product,[4]; in the presence of GH,extended
same,reduction of GHR clearance from the cell surface,"[4]; in the presence of GH (16 nM), 20 mM MG132, 30° C.",> 50%
CC(C)[C@H](O)[C@@]12NC(=O)[C@H](C)[C@@H]1OC2=O [lactacystin b-lactone],125I-GH uptake relative to control,[2],approximately 25 % of the control level
CC(=O)N[C@@H](CSC(=O)[C@]1([C@@H](O)C(C)C)NC(=O)[C@H](C)[C@@H]1O)C(=O)O [lactacystin],Cy3-GH uptake (intracellular fluorescent label),[1],hardly any label was present intracellularly
same,125I-GH uptake relative to control,[2],somewhat less effective
"GH: growth hormone, ligand of the growth hormone receptor",disappearance of cell-surface biotinylated GHR,"[4]; incubation in the presence of ligand, 30° C.",induced a rapid disappearance of the GHR
same,amount of GHR in the presence of GH (percentage of mature GHR present without GH),"[5]; CHO-ts20, 40° C. (non-permissive)",170%
same,steady-state amount of GHR in the presence of GH,"[5]; CHO-ts20, permissive temperature",decreased
same,steady state of mature GHR relative to that without GH,GHR in CHO-E36 cells,approximately 50%
